Reference: US7872014B2, “Anaplastic lymphoma kinase modulators and methods of use” (Exelixis, Inc., priority 2003, dated 2011)

What follows are compounds tested against T1, ALK (baculovirus expressed human ALK kinase domain F1098-K1410) (Homo sapiens, UniProt Q9UM73) (assay: Luciferase-Coupled Chemiluminescent Kinase assay (LCCA), ALK biochemical activity). Conditions: inhibition of ALK; mean values; 1 μM ATP, 4 μM poly-AEKY, 12 nM ALK, 2 hours ambient temperature.
T1 construct: baculovirus expressed human ALK kinase domain F1098-K1410; made in house
T1 sequence (Q9UM73 1098-1410): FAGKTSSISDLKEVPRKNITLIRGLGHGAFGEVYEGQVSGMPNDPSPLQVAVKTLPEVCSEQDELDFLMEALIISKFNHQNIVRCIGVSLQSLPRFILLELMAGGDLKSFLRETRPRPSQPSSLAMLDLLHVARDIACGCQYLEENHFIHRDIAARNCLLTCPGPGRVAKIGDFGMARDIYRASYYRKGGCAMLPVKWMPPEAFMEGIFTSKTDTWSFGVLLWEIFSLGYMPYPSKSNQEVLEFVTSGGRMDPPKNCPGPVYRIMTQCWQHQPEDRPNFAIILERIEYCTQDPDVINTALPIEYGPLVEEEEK
Experimental: ALK biochemical activity was assessed using a Luciferase-Coupled Chemiluminescent Kinase assay (LCCA) format in which kinase activity was measured as the percent ATP remaining following the kinase reaction. ATP remaining after the kinase reaction was detected by luciferase-luciferin-coupled chemiluminescence.
The reaction was initiated by mixing test compounds, 1 μM ATP, 4 μM poly-AEKY and 12 nM ALK (baculovirus expressed human ALK kinase domain F1098-K1410) in a 20 μL assay buffer ([…] pH 7.5, 10 mM MgCl2, 0.02% Triton X-100, 100 mM DTT, 2 mM MnCl2). The mixture was incubated at ambient temperature for 2 hours after which 20 μL luciferase-luciferin mix was added and the chemiluminescent signal read using a Wallac Victor^2 reader. The luciferase-luciferin mix consists of 50 mM HEPES, pH 7.8, 8.5 μg/mL oxalic acid (pH 7.8), 5 (or 50) mM DTT, 0.4% Triton X-100, 0.25 mg/mL coenzyme A, 63 μM AMP, 28 μg/mL luciferin and 40,000 units of light/mL luciferase.
Consumption of ATP by ALK can thus be quantified and utilized as a measure of inhibition of ALK activity by compounds described herein. By employing serial dilutions of compounds to be tested, the ability of test compounds to inhibit ALK activity can be determined.
For `COc1cc(F)c2c(-c3ccc(O)cc3)nc3[nH]nc(C)c3c2c1F` [Example 79, 4-[6,9-difluoro-1-methyl-8-(methyloxy)-3H-pyrazolo[3,4-c]isoquinolin-5-yl]phenol], the IC50 was ≤ 0.099 µM.
`COc1ccc2c(-c3ccc(O)c(Br)c3)nc3[nH]nc(C)c3c2c1OCCN1CCOCC1` [Example 80, 2-bromo-4-{1-methyl-8-(methyloxy)-9-[(2-morpholin-4-ylethyl)oxy]-3H-pyrazolo[3,4-c]isoquinolin-5-yl}phenol] was tested, and the IC50 was 0.1 to 0.999 µM.
`COc1ccc2c(-c3ccc(O)c(Cl)c3)nc3[nH]nc(C)c3c2c1OCCN1CCOCC1` [Example 81, 2-chloro-4-{1-methyl-8-(methyloxy)-9-[(2-morpholin-4-ylethyl)oxy]-3H-pyrazolo[3,4-c]isoquinolin-5-yl}phenol] showed an IC50 of 0.1 to 0.999 µM.
Work on `COc1cc2c(-c3ccc(O)cc3)nc3[nH]nc(CNCc4ccccc4)c3c2cc1OC` [Example 82, 4-(7,8-bis(methyloxy)-1-{[(phenylmethyl)amino]methyl}-3H-pyrazolo[3,4-c]isoquinolin-5-yl)phenol] yielded an IC50 of 0.1 to 0.999 µM.
In the case of `COc1cc2c(-c3cc(C)c(O)cc3C)nc3[nH]nc(C)c3c2cc1OC` [Example 83, 2,5-dimethyl-4-[1-methyl-7,8-bis(methyloxy)-3H-pyrazolo[3,4-c]isoquinolin-5-yl]phenol], the IC50 is reported as 0.1 to 0.999 µM.
With `COc1cc2c(-c3cc(Cl)c(O)cc3Cl)nc3[nH]nc(C)c3c2cc1OC` [Example 85, 2,5-dichloro-4-[1-methyl-7,8-bis(methyloxy)-3H-pyrazolo[3,4-c]isoquinolin-5-yl]phenol] the IC50 was ≤ 0.099 µM.
In the case of `COc1ccc2c(-c3ccc(O)c(Br)c3)nc3[nH]nc(C)c3c2c1OCC1CCN(C)CC1` [Example 87, 2-bromo-4-(1-methyl-8-(methyloxy)-9-{[(1-methylpiperidin-4-yl)methyl]oxy}-3H-pyrazolo[3,4-c]isoquinolin-5-yl)phenol], the IC50 is reported as ≤ 0.099 µM.
In the case of `COc1cc2c(-c3ccc(O)c(Cl)c3)nc3[nH]nc(C)c3c2cc1OCC1CCN(C)CC1` [Example 88, 2-chloro-4-(1-methyl-7-(methyloxy)-8-{[(1-methylpiperidin-4-yl)methyl]oxy}-3H-pyrazolo[3,4-c]isoquinolin-5-yl)phenol], the IC50 is reported as ≤ 0.099 µM.
`COc1ccc2c(-c3ccc(O)cc3)nc3[nH]nc(C)c3c2c1F` [Example 89, 4-[9-fluoro-1-methyl-8-(methyloxy)-3H-pyrazolo[3,4-c]isoquinolin-5-yl]phenol] was tested, and the IC50 was ≤ 0.099 µM.
For `COCCOc1c(OC)ccc2c(-c3ccc(O)cc3)nc3[nH]nc(C)c3c12` [Example 90, 4-(1-methyl-8-(methyloxy)-9-{[2-(methyloxy)ethyl]oxy}-3H-pyrazolo[3,4-c]isoquinolin-5-yl)phenol], the IC50 was ≤ 0.099 µM.
`COc1ccc2c(-c3ccc(O)c(Cl)c3)nc3[nH]nc(C)c3c2c1OCC1CCN(C)CC1` [Example 91, 2-chloro-4-(1-methyl-8-(methyloxy)-9-{[(1-methylpiperidin-4-yl)methyl]oxy}-3H-pyrazolo[3,4-c]isoquinolin-5-yl)phenol] was tested, and the IC50 was ≤ 0.099 µM.
In the case of `COc1cc2c(c(-c3ccc(O)cc3)nc3[nH]nc(C)c32)c(Br)c1C` [Example 92, 4-[6-bromo-1,7-dimethyl-8-(methyloxy)-3H-pyrazolo[3,4-c]isoquinolin-5-yl]phenol], the IC50 is reported as ≤ 0.099 µM.
For `COc1cc2c(c(-c3ccc(O)cc3)nc3[nH]nc(C)c32)c(F)c1OC` [Example 93, 4-[6-fluoro-1-methyl-7,8-bis(methyloxy)-3H-pyrazolo[3,4-c]isoquinolin-5-yl]phenol], the IC50 was ≤ 0.099 µM.
In the case of `COc1c(C)cc2c(-c3ccc(O)cc3)nc3[nH]nc(C)c3c2c1Cl` [Example 94, 4-[9-chloro-1,7-dimethyl-8-(methyloxy)-3H-pyrazolo[3,4-c]isoquinolin-5-yl]phenol], the IC50 is reported as ≤ 0.099 µM.
In the case of `CCN1CCC(COc2cc3c(cc2OC)c(-c2ccc(O)c(Cl)c2)nc2[nH]nc(C)c23)CC1` [Example 95, 2-chloro-4-[8-{[(1-ethylpiperidin-4-yl)methyl]oxy}-1-methyl-7-(methyloxy)-3H-pyrazolo[3,4-c]isoquinolin-5-yl]phenol], the IC50 is reported as ≤ 0.099 µM.
In the case of `COc1cc2c(-c3ccc(O)cc3Cl)nc3[nH]nc(C)c3c2cc1OC` [Example 96, 3-chloro-4-[1-methyl-7,8-bis(methyloxy)-3H-pyrazolo[3,4-c]isoquinolin-5-yl]phenol], the IC50 is reported as ≤ 0.099 µM.
With `COCCOc1ccc2c(-c3ccc(O)cc3)nc3[nH]nc(C)c3c2c1OCCOC` [Example 97, 4-(1-methyl-8,9-bis{[2-(methyloxy)ethyl]oxy}-3H-pyrazolo[3,4-c]isoquinolin-5-yl)phenol] the IC50 was ≤ 0.099 µM.
`Cc1n[nH]c2nc(-c3ccc(O)cc3)c3ccccc3c12` [Example 98, 4-(1-methyl-3H-pyrazolo[3,4-c]isoquinolin-5-yl)phenol] was tested, and the IC50 was ≤ 0.099 µM.
In the case of `Cc1n[nH]c2nc(-c3ccc(O)c(Cl)c3)c3ccccc3c12` [Example 99, 2-chloro-4-(1-methyl-3H-pyrazolo[3,4-c]isoquinolin-5-yl)phenol], the IC50 is reported as ≤ 0.099 µM.
For `Cc1n[nH]c2nc(-c3ccc(O)c(Br)c3)c3ccccc3c12` [Example 100, 2-bromo-4-(1-methyl-3H-pyrazolo[3,4-c]isoquinolin-5-yl)phenol], the IC50 was ≤ 0.099 µM.
For `COc1cc2c(cc1C)c(-c1ccc(O)c(Cl)c1)nc1[nH]nc(C)c12` [Example 101, 2-chloro-4-[1,7-dimethyl-8-(methyloxy)-3H-pyrazolo[3,4-c]isoquinolin-5-yl]phenol], the IC50 was ≤ 0.099 µM.
For `COc1cc2c(cc1C)c(-c1ccc(O)c(Br)c1)nc1[nH]nc(C)c12` [Example 102, 2-bromo-4-[1,7-dimethyl-8-(methyloxy)-3H-pyrazolo[3,4-c]isoquinolin-5-yl]phenol], the IC50 was ≤ 0.099 µM.
`COc1cc2c(-c3ccc(O)c(Cl)c3)nc3[nH]nc(C)c3c2cc1OCC1CCN(C(C)C)CC1` [Example 103, 2-chloro-4-[1-methyl-8-({[1-(1-methylethyl)piperidin-4-yl]methyl}oxy)-7-(methyloxy)-3H-pyrazolo[3,4-c]isoquinolin-5-yl]phenol] was tested, and the IC50 was ≤ 0.099 µM.
With `COc1ccc2c(-c3ccc(O)cc3)nc3[nH]nc(C)c3c2c1Br` [Example 104, 4-[9-bromo-1-methyl-8-(methyloxy)-3H-pyrazolo[3,4-c]isoquinolin-5-yl]phenol] the IC50 was ≤ 0.099 µM.
`COc1c(Cl)cc2c(-c3ccc(O)cc3)nc3[nH]nc(C)c3c2c1F` [Example 105, 4-[7-chloro-9-fluoro-1-methyl-8-(methyloxy)-3H-pyrazolo[3,4-c]isoquinolin-5-yl]phenol] showed an IC50 of 0.1 to 0.999 µM.
For `COc1cc2c(-c3ccc(O)c(Cl)c3)nc3[nH]nc(C)c3c2cc1OCC1CCN(C(C)=O)CC1` [Example 106, 4-[8-{[(1-acetylpiperidin-4-yl)methyl]oxy}-1-methyl-7-(methyloxy)-3H-pyrazolo[3,4-c]isoquinolin-5-yl]-2-chlorophenol], the IC50 was ≤ 0.099 µM.
With `COc1ccc2c(-c3ccc(O)c(Br)c3)nc3[nH]nc(C)c3c2c1OCC1CCN(C(C)=O)CC1` [Example 107, 4-[9-{[(1-acetylpiperidin-4-yl)methyl]oxy}-1-methyl-8-(methyloxy)-3H-pyrazolo[3,4-c]isoquinolin-5-yl]-2-bromophenol] the IC50 was ≤ 0.099 µM.
For `COCCOc1ccc2c(-c3ccc(O)c(Cl)c3)nc3[nH]nc(C)c3c2c1OC` [Example 108, 2-chloro-4-(1-methyl-9-(methyloxy)-8-{[2-(methyloxy)ethyl]oxy}-3H-pyrazolo[3,4-c]isoquinolin-5-yl)phenol], the IC50 was ≤ 0.099 µM.
`COc1cc2c(cc1F)c(-c1ccc(O)cc1)nc1[nH]nc(C)c12` [Example 109, 4-[7-fluoro-1-methyl-8-(methyloxy)-3H-pyrazolo[3,4-c]isoquinolin-5-yl]phenol] gave an IC50 of 0.1 to 0.999 µM.
`COCCOc1ccc2c(-c3ccc(O)c(Cl)c3)nc3[nH]nc(C)c3c2c1OCCOC` [Example 110, 2-chloro-4-(1-methyl-8,9-bis{[2-(methyloxy)ethyl]oxy}-3H-pyrazolo[3,4-c]isoquinolin-5-yl)phenol] was tested, and the IC50 was ≤ 0.099 µM.
`COCCOc1ccc2c(-c3ccc(O)c(Br)c3)nc3[nH]nc(C)c3c2c1OCCOC` [Example 111, 2-bromo-4-(1-methyl-8,9-bis{[2-(methyloxy)ethyl]oxy}-3H-pyrazolo[3,4-c]isoquinolin-5-yl)phenol] was tested, and the IC50 was ≤ 0.099 µM.
For `COCCOc1c(OC)ccc2c(-c3ccc(O)c(Cl)c3)nc3[nH]nc(C)c3c12` [Example 112, 2-chloro-4-(1-methyl-8-(methyloxy)-9-{[2-(methyloxy)ethyl]oxy}-3H-pyrazolo[3,4-c]isoquinolin-5-yl)phenol], the IC50 was ≤ 0.099 µM.
In the case of `COCCOc1c(OC)ccc2c(-c3ccc(O)c(Br)c3)nc3[nH]nc(C)c3c12` [Example 113, 2-bromo-4-(1-methyl-8-(methyloxy)-9-{[2-(methyloxy)ethyl]oxy}-3H-pyrazolo[3,4-c]isoquinolin-5-yl)phenol], the IC50 is reported as ≤ 0.099 µM.
In the case of `COc1cc2c(-c3ccc(O)cc3F)nc3[nH]nc(C)c3c2cc1OC` [Example 114, 3-fluoro-4-[1-methyl-7,8-bis(methyloxy)-3H-pyrazolo[3,4-c]isoquinolin-5-yl]phenol], the IC50 is reported as ≤ 0.099 µM.
`COCCOc1cc2c(cc1OC)c(-c1ccc(O)c(Cl)c1)nc1[nH]nc(C)c12` [Example 115, 2-chloro-4-(1-methyl-7-(methyloxy)-8-{[2-(methyloxy)ethyl]oxy}-3H-pyrazolo[3,4-c]isoquinolin-5-yl)phenol] was tested, and the IC50 was ≤ 0.099 µM.
